The record followed here is PMC6826779, “Bis-allylic Deuterated DHA Alleviates Oxidative Stress in Retinal Epithelial Cells” (Antioxidants, 2019).

This assay concerns the target T1, 15-sLOX (Glycine max, UniProt P08170).
T1 sequence (P08170 1-839): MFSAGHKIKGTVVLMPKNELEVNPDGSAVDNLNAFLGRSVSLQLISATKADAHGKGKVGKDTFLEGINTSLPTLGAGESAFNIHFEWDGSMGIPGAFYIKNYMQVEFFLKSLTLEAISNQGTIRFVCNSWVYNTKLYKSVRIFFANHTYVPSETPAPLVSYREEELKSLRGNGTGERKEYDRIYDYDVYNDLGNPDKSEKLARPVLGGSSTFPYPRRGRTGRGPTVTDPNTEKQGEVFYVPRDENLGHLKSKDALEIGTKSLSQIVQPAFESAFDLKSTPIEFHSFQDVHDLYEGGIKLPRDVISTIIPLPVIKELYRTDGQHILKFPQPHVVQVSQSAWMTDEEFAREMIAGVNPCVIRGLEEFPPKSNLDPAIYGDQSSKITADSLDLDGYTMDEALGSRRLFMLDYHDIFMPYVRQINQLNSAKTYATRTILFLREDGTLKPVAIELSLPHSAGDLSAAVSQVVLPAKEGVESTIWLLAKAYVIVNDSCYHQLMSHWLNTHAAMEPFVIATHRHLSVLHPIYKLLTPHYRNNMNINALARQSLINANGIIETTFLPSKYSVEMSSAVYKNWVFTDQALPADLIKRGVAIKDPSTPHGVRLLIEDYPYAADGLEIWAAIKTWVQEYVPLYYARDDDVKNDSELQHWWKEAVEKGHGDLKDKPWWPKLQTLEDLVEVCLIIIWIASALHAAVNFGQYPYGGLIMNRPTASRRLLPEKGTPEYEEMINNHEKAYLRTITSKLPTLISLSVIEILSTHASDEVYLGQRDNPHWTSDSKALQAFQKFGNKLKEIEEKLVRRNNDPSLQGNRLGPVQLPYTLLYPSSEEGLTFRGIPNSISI
As to the kind of experiment: LC-MS/MS of 15s-LOX oxidized samples (product profile). Format: biochemical, Glycine max (soybean). The settings on record: 0.1 mM substrate, 30 min reaction, room temperature. The protocol: In order to gain insights on the nature of the produced metabolites, LC-MS/MS analysis of the reaction products were carried out. To this end, the respective DHA variants (0.1 mM) were incubated in a 2 mL eppendorf tube with 10 µL 15-sLOX (4 mg/mL) in sodium borate buffer (50 mM, pH 9) for 30 min at room temperature and the reaction quenched by the addition of cold MeOH (760 µL). The hydroperoxides were reduced with the addition of aq. SnCl2 (50 µL, 5 mg/mL) and subsequently the mixture was centrifuged (16,100 ×g for 5 min). Water (2 mL) was added to the supernatant, followed by the dropwise addition of glacial acetic acid (40 µL). The products were purified by SPE using SepPak 200 mg C18 cartridges (3CC), according to published protocols. The methyl formate eluates were evaporated to dryness, dissolved in MeOH (0.5 mL) and stored at −80 °C until analysis. The resulting solution was diluted 1000 times with MeOH for LC-MS/MS measurements. To 120 µL water, 72 µL of MeOH, 4 µL of the diluted solution and 4 µL of an internal standard (15-HETE-d8, Leukotriene LTB4-d4 and DHA-d5) was added. The samples were loaded in a SIL-30AC autosampler and the analytes separated on a Kinetex 1.7 µm C18 100Å, 50 × 2.1 mm LC column as described. The detection of DHA metabolites was performed in selected ion monitoring mode using several traces in order to take the eventual loss of a deuterium atom into account. The following traces were used: m/z 327.2, 343.2, 359.2 and 375.2 for DHA and its metabolites, m/z 327.2, 328.2, 329.2, 344.2, 345.2, 360.2, 361.2, 376.2, 377.2 for D2-DHA, m/z 331.2, 345.3, 346.2, 361.2, 362.3, 363.2, 377.2, 378.2 and 379.2 for D4-DHA and m/z 337.2, 352.2, 353.2, 367.2, 368.2, 369.2, 383.2, 384.2 and 385.2 for D10-DHA. Tandem mass spectra were recorded as product ion scans. Quantification of the metabolites was done by calculating the area ratio between the analyte and the internal standard (DHA-d5 for non-hydroxylated, 15-HETE-d8 for mono-hydroxylated and LTB4-d4 for di-hydroxylated derivatives) using Multiquant version 3.0.2.

With `[2H]C([2H])(/C=C\C/C=C\C/C=C\C/C=C\C/C=C\CC)/C=C\CCC(=O)O` [D2-DHA, (6,6-D2)-DHA], the “pre-dominant product of 15-sLOX oxidation (LC-MS)” value (from here on “pre-dominant product”) was “double oxygenation product 10S,17S-diHDHA”.
Regarding `[2H]C([2H])(C=CCC=CCC=CCC=CCC)C=CC([2H])([2H])C=CCCC(=O)O` [D4-DHA, (6,6,9,9-D4)-DHA], the “pre-dominant product” value is reported as “double oxygenation product 10S,17S-diHDHA”.
Regarding `CC/C=C\C/C=C\C/C=C\C/C=C\C/C=C\C/C=C\CCC(=O)O` [Natural DHA, docosahexaenoic acid, reference compound], the “pre-dominant product” value was “double oxygenation product 10S,17S-diHDHA”.
